The values that follow come from patent publication US20060116390A1, “Hepatitis c virus inhibitors” (priority 2003, published 2006).

The test system of the assay is HCV proteins in Rep5.1 cells (replicon cell line). Briefly: Inhibitory activity of HCV: cell-based ELISA in replicon cell line Rep5.1 (decrease of HCV proteins). On the set-up: species or system hepatitis C virus. The note with it: Rep5.1 cells, 72 hours with drug. A digest of the protocol:
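Rep5.1 replicon cells (5000/well, DMEM-10 with 500 μg/ml G418) were given serially diluted drug 4 h after seeding. After 72 h, cells were fixed in methanol/acetone and HCV proteins detected by cell-based ELISA using replicon-specific patient plasma antibodies. IC50 is the concentration giving 50% protein decrease versus the no-drug control.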
A general note: ELISA stands for enzyme-linked immunosorbent assay.

[1] abbreviates: Hepatitis C virus, 72 h, concentration at which 50% of HCV proteins was decreased, Table 2, read-out: IC50.
The mark [2] stands for this setting: Hepatitis C virus, 72 h, decrease of HCV proteins measured by HCV antibody, Table 1, read-out: Level (IC50 values classified).

Read-outs that look alike come from different tables or passages of the source. Bounds are passed on as bounds.

Usually IC50 stands for the concentration at which inhibition is half-maximal.

As to `CC1=C(C(=O)OCCCc2ccsc2)C(CS(=O)(=O)C(C)(C)C)NC(=S)N1` (stereo not shown) [68′, 6-methyl-4-(2-methyl-propane-2-sulfonylmethyl)-2-thioxo-1,2,3,4-tetrahydro-pyrimidine-5-carboxylic acid 3-thiophen-3-yl-propyl ester], the IC50 by setting is: under setting [1], over 100000 nM; under setting [2], over 20000 nM.
Taken in the same sequence, the figures for `COc1ccc(COC(=O)C2=C(C)NC(=S)NC2)c(F)c1` [Compound 177, 6-methyl-2-thioxo-1,2,3,4-tetrahydro-pyrimidine-5-carboxylic acid 2-fluoro-4-methoxy-benzyl ester] were 2500 nM and 1000 to 10000 nM.
The like results for `CCOC(=O)COC(=O)OCC1NC(=S)NC(C)=C1C(=O)OCCc1cccc([N+](=O)[O-])c1` (stereo not shown) [83″, 4-ethoxycarbonylmethoxycarbonyloxymethyl-6-methyl-2-thioxo-1,2,3,4-tetrahydro-pyrimidine-5-carboxylic acid 2-(3-nitro-phenyl)-ethyl ester] were, in that order, 6100 nM and 1000 to 10000 nM.
For `CC1=C(C(=O)OCc2cc(Cl)cc(Cl)c2)CNC(=S)N1` [Compound 131, 6-methyl-2-thioxo-1,2,3,4-tetrahydro-pyrimidine-5-carboxylic acid 3,5-dichloro-benzyl ester], the half-inhibitory concentration (IC50) under setting [1] is under 400 nM and the IC50 under setting [2] was under 1000 nM.
Consider `CC1=C(C(=O)OCc2ccc3c(c2)OCO3)CNC(=S)N1` [Compound 9, 6-methyl-2-thioxo-1,2,3,4-tetrahydro-pyrimidine-5-carboxylic acid benzo[1,3]dioxol-5-ylmethyl ester], for which the IC50 by setting is: under setting [1], 4000 nM; under setting [2], 1000 to 10000 nM.
On to `CCCOc1ccc(COC(=O)C2=C(C)NC(=S)NC2)cc1` [Compound 78, 6-methyl-2-thioxo-1,2,3,4-tetrahydro-pyrimidine-5-carboxylic acid 4-propoxy-benzyl ester], for which the IC50 under setting [1] is 1000 nM and the IC50 under setting [2] was under 1000 nM.
Regarding `CCCCCCCCNC(=O)CCCCCOC(=O)C1=C(C)NC(=S)NC1` [19′, 6-methyl-2-thioxo-1,2,3,4-tetrahydro-pyrimidine-5-carboxylic acid 5-octylcarbamoyl-pentyl ester], the IC50 under setting [1] is over 100000 nM and the IC50 under setting [2] was over 20000 nM.
For `CC1=C(C(=O)OCC#Cc2ccccc2)C(CF)NC(=S)N1` (stereo not shown) [45′, 4-fluoromethyl-6-methyl-2-thioxo-1,2,3,4-tetrahydro-pyrimidine-5-carboxylic acid 3-phenyl-prop-2-inyl ester], under “concentration at which 50% of HCV proteins was decreased, Table 2, read-out: IC50”, the IC50 came out at 800 nM.
As for `CC1=C(C(=O)OCCCc2ccc(OCc3ccccc3)cc2)CNC(=S)N1` [Compound 108, 6-methyl-2-thioxo-1,2,3,4-tetrahydro-pyrimidine-5-carboxylic acid 3-(4-benzyloxy-phenyl)-propyl ester], the 50% inhibitory concentration (IC50) was under 400 nM under setting [1] and under 1000 nM under setting [2].
For the molecule `COc1ccc(C2(COC(=O)C3=C(C)NC(=S)NC3CF)CCCC2)cc1` (stereo not shown) [64′, 4-fluoromethyl-6-methyl-2-thioxo-1,2,3,4-tetrahydro-pyrimidine-5-carboxylic acid 1-(4-methoxy-phenyl)-cyclopentylmethyl ester], the concentration for half-maximal inhibition (IC50) is 3000 nM under setting [1] and 1000 to 10000 nM under setting [2].
Take `CC1=C(C(=O)OCc2cccc(SC(F)(F)F)c2)C(CO)NC(=S)N1` (stereo not shown) [33″, 4-hydroxymethyl-6-methyl-2-thioxo-1,2,3,4-tetrahydro-pyrimidine-5-carboxylic acid 3-trifluoromethylsulfanyl-benzyl ester]: the IC50 was under 400 nM under setting [1] and under 1000 nM under setting [2].
As for `CC1=C(C(=O)OCCc2ccc([N+](=O)[O-])cc2)CNC(=S)N1` [Compound 119, 6-methyl-2-thioxo-1,2,3,4-tetrahydro-pyrimidine-5-carboxylic acid 2-(4-nitro-phenyl)-ethyl ester], the IC50 under setting [1] stood at 1300 nM and the IC50 under setting [2] lay in the range of 1000 to 10000 nM.
The like results for `CC1=C(C(=O)OCCc2ccsc2)C2(CCC2)NC(=S)N1` [7′, 8-methyl-6-thioxo-5,7-diaza-spiro[3,5]non-8-en-9-carboxylic acid 2-thiophen-3-yl-ethyl ester] were, in that order, 8000 nM and 1000 to 10000 nM.
